Results taken from EPA's ToxRefDB 2.

Assays:
rabbit = conditions: Prenatal developmental toxicity study, new zealand white, Oral, Gavage/Intubation, dose end: 19 GD
mouse [1] = conditions: Combined chronic toxicity/carcinogenicity, cd1, Oral, Feed, dose end: 2 year, group: systemic
rat [2] = conditions: Prenatal developmental toxicity study, wistar, Oral, Gavage/Intubation, dose end: 15 GD
dog [3] = conditions: Chronic toxicity; beagle; Oral; Capsule; dose end: 52 week; group: systemic; systemic / clinical chemistry / alkaline phosphatase (alp/alk) / alkaline phosphatase (alp/alk) + systemic / clinical chemistry / …
rat [4] = conditions: Subchronic oral toxicity in rodents, wistar, [Not Specified], dose end: 90 day, group: systemic
rat [5] = conditions: Combined chronic toxicity/carcinogenicity, sprague dawley, Oral, Feed, dose end: 2 year, group: systemic
rat [6] = conditions: Multigenerational reproductive toxicity study, wistar, Oral, Feed, dose end: 2 generation
mouse [7] = conditions: Carcinogenicity, other, Oral, Feed, dose end: 105 week, group: systemic
rat [8] = conditions: Prenatal developmental toxicity study, Oral, Gavage/Intubation, dose end: 16 GD
rat [9] = conditions: Subchronic oral toxicity in rodents, Feed, dose end: 3 month, group: systemic
dog [10] = conditions: Subchronic oral toxicity in nonrodent, beagle, Feed, dose end: 13 week, group: systemic, systemic / pathology microscopic / kidney / pyelonephritis
dog [11] = conditions: Chronic toxicity, beagle, Oral, Feed, dose end: 104 week, group: systemic
rat [12] = conditions: Combined chronic toxicity/carcinogenicity, wistar, Oral, Feed, dose end: 24 month, group: systemic
rat [13] = conditions: Multigenerational reproductive toxicity study, sprague dawley, Oral, Feed, dose end: 2 generation
[14] = group: developmental, developmental / developmental malformation / bone / short supernumerary + developmental / developmental malformation / bone / full …
[15] = group: maternal, systemic / in life observation / body weight / body weight + systemic / in life observation / body weight / body weight gain + systemic / in…
[16] = group: developmental, developmental / developmental malformation / mouth / jaw / cleft palate
[17] = group: maternal, systemic / in life observation / body weight / body weight gain
[18] = group: maternal, systemic / in life observation / body weight / body weight gain + systemic / in life observation / clinical signs / urogenital staining + …
[19] = systemic / clinical chemistry / aminopyrine-n-demethylase / aminopyrine-n-demethylase + systemic / organ weight / liver / absolute + …
[20] = systemic / urinalysis / volume / volume
[21] = systemic / pathology microscopic / liver / hypertrophy
[22] = group: offspring, systemic / in life observation / clinical signs / red or crusty deposits around eyes, ears, nose, or mouth + systemic / pathology gross / …
[23] = group: parental, systemic / in life observation / body weight / body weight gain + systemic / in life observation / food consumption / food consumption + …
[24] = systemic / pathology microscopic / liver / focal cellular change + systemic / pathology microscopic / liver / hypertrophy + systemic / …
[25] = group: developmental, developmental / developmental malformation / bone / incomplete ossification + systemic / in life observation / body weight / fetal weight
[26] = group: maternal, reproductive / reproductive performance / postimplantation loss / postimplantation loss + systemic / in life observation / body weight / …
[27] = systemic / clinical chemistry / lipids, total / lipids, total + systemic / organ weight / ovary / relative to body weight + systemic / organ…
[28] = systemic / in life observation / body weight / body weight + systemic / in life observation / body weight / body weight gain
[29] = group: offspring, developmental / offspring survival late / [other] / [other]
[30] = group: parental, systemic / organ weight / kidney / relative to body weight + systemic / organ weight / spleen / absolute + systemic / organ weight / spleen…
[31] = group: parental, systemic / organ weight / liver / absolute + systemic / organ weight / liver / relative to body weight

SMILES: CC(C)(C)[C@H](O)[C@H](Cc1ccc(Cl)cc1)n1cncn1 [Paclobutrazol]
- LEL (rabbit; [14]): 125 mg/kg/day
- LOAEL (rabbit; [14]): 125 mg/kg/day
- NEL (rabbit; [14]): 75 mg/kg/day
- NOAEL (rabbit; [14]): 75 mg/kg/day
- LEL (rabbit; [15]): 125 mg/kg/day
- LOAEL (rabbit; [15]): 125 mg/kg/day
- NEL (rabbit; [15]): 75 mg/kg/day
- NOAEL (rabbit; [15]): 75 mg/kg/day
- LEL (mouse [1]; systemic / organ weight / kidney / relative to body weight): 18.8 mg/kg/day
- NEL (mouse [1]; systemic / organ weight / kidney / relative to body weight + systemic / organ weight / kidney / absolute + systemic / organ weight / liver…): 3.75 mg/kg/day
- LOAEL (mouse [1]; systemic / pathology microscopic / liver / steatosis): 112 mg/kg/day
- NOAEL (mouse [1]; systemic / pathology microscopic / liver / steatosis + systemic / organ weight / liver / absolute + systemic / organ weight / liver / …): 18.8 mg/kg/day
- LOAEL (rat [2]; group: developmental, developmental / developmental malformation / bone / incomplete ossification + developmental / developmental malformation / bone / unossified): 100 mg/kg/day
- NOAEL (rat [2]; group: developmental, developmental / developmental malformation / bone / incomplete ossification + developmental / developmental malformation / bone / unossified…): 40 mg/kg/day
- LEL (rat [2]; [16]): 40 mg/kg/day
- NEL (rat [2]; [16]): < 40 mg/kg/day
- LEL (rat [2]; [17]): 100 mg/kg/day
- LOAEL (rat [2]; [17]): 100 mg/kg/day
- NEL (rat [2]; [18]): 40 mg/kg/day
- NOAEL (rat [2]; [18]): 40 mg/kg/day
- LEL (dog [3]): 75 mg/kg/day
- LOAEL (dog [3]): 75 mg/kg/day
- NEL (dog [3]): 15 mg/kg/day
- NOAEL (dog [3]): 15 mg/kg/day
- LOAEL (rat [4]; [19]): 62.5 mg/kg/day
- NOAEL (rat [4]; [19]): 12.5 mg/kg/day
- LEL (rat [4]; [20]): 2.5 mg/kg/day
- NEL (rat [4]; [20]): < 2.5 mg/kg/day
- LEL (rat [5]; systemic / clinical chemistry / triglycerides / triglycerides): 12.5 mg/kg/day
- LOAEL (rat [5]; [21]): 62.5 mg/kg/day
- NOAEL (rat [5]; [21]): 12.5 mg/kg/day
- NEL (rat [5]; systemic / pathology microscopic / liver / hypertrophy + systemic / clinical chemistry / triglycerides / triglycerides + systemic / …): 2.5 mg/kg/day
- LEL (rat [6]; [22]): 12.5 mg/kg/day
- LOAEL (rat [6]; [22]): 12.5 mg/kg/day
- NEL (rat [6]; [22]): 2.5 mg/kg/day
- NOAEL (rat [6]; [22]): 2.5 mg/kg/day
- NEL (rat [6]; group: parental, systemic / in life observation / body weight / body weight + systemic / in life observation / body weight / body weight gain + systemic / in…): 2.5 mg/kg/day
- LOAEL (rat [6]; [23]): > 62.5 mg/kg/day
- NOAEL (rat [6]; [23]): ≥ 62.5 mg/kg/day
- LEL (rat [6]; group: parental, systemic / in life observation / clinical signs / red or crusty deposits around eyes, ears, nose, or mouth + systemic / pathology gross / …): 12.5 mg/kg/day

SMILES: CCOC(=O)C(C)Oc1ccc(Oc2nc3ccc(Cl)cc3o2)cc1 (stereo unspecified) [Fenoxaprop-ethyl]
- LOAEL (mouse [7]; [24]): 16.6 mg/kg/day
- NOAEL (mouse [7]; [24]): 5.7 mg/kg/day
- LEL (mouse [7]; [21]): 5.7 mg/kg/day
- NEL (mouse [7]; [21]): < 5.7 mg/kg/day
- LEL (rat [8]; [25]): 100 mg/kg/day
- LOAEL (rat [8]; [25]): 100 mg/kg/day
- NEL (rat [8]; [25]): 32 mg/kg/day
- NOAEL (rat [8]; [25]): 32 mg/kg/day
- LEL (rat [8]; [26]): 100 mg/kg/day
- LOAEL (rat [8]; [26]): 100 mg/kg/day
- NEL (rat [8]; [26]): 32 mg/kg/day
- NOAEL (rat [8]; [26]): 32 mg/kg/day
- LEL (rat [9]; [27]): 1 mg/kg/day
- NEL (rat [9]; [27]): < 1 mg/kg/day
- LOAEL (rat [9]; systemic / organ weight / adrenal gland / relative to body weight): 4 mg/kg/day
- NOAEL (rat [9]; systemic / organ weight / adrenal gland / relative to body weight + systemic / clinical chemistry / cholesterol / cholesterol + systemic / …): 1 mg/kg/day
- LEL (dog [10]): 2 mg/kg/day
- LOAEL (dog [10]): 2 mg/kg/day
- NEL (dog [10]): 0.4 mg/kg/day
- NOAEL (dog [10]): 0.4 mg/kg/day
- LEL (dog [11]; systemic / in life observation / body weight / body weight): 0.375 mg/kg/day
- LOAEL (dog [11]; [28]): 1.88 mg/kg/day
- NEL (dog [11]; [28]): 0.075 mg/kg/day
- NOAEL (dog [11]; [28]): 0.375 mg/kg/day
- LOAEL (rat [12]; systemic / clinical chemistry / cholesterol / cholesterol + systemic / clinical chemistry / lipids, total / lipids, total): 9 mg/kg/day
- NOAEL (rat [12]; systemic / clinical chemistry / cholesterol / cholesterol + systemic / clinical chemistry / lipids, total / lipids, total + systemic / organ…): 1.5 mg/kg/day
- NEL (rat [12]; systemic / clinical chemistry / cholesterol / cholesterol + systemic / hematology / leukocyte (wbc) count differential / leukocyte (wbc) + …): 0.25 mg/kg/day
- LEL (rat [12]; systemic / clinical chemistry / cholesterol / cholesterol + systemic / pathology microscopic / liver / glycogen liberation + systemic / …): 1.5 mg/kg/day
- LEL (rat [13]; [29]): 0.25 mg/kg/day
- LOAEL (rat [13]; [29]): 0.25 mg/kg/day
- NEL (rat [13]; [29]): < 0.25 mg/kg/day
- NOAEL (rat [13]; [29]): < 0.25 mg/kg/day
- LEL (rat [13]; [30]): 1.94 mg/kg/day
- NEL (rat [13]; [30]): 0.33 mg/kg/day
- LOAEL (rat [13]; [31]): 9.05 mg/kg/day
- NOAEL (rat [13]; [31]): 1.53 mg/kg/day
